Assays:
Assay type in all cases: functional, cell-based
MCF7 = experiment: Cytotoxicity against human MCF7 cells by SRB assay
HL-60 = experiment: Cytotoxicity against human HL60 cells by SRB assay
HT-29 = experiment: Cytotoxicity against human HT-29 cells by SRB assay

| SMILES | IC50 (MCF7) | IC50 (HL-60) | IC50 (HT-29) |
| --- | --- | --- | --- |
| COc1cccc2c1C(=O)c1c(O)c3c(c(O)c1C2=O)C[C@@](O)(C(=O)CO)C[C@@H]3O[C@H]1C[C@H](N)[C@H](O)[C@H](C)O1 [DOXORUBICIN] | 0.12 µM | 0.016 µM | 0.33 µM |
| CC(C)=CCCC(C(=O)O)[C@@H]1[C@@H](O)C[C@]2(C)C3=CC[C@H]4C(C)(C)[C@@H](O)CC[C@]4(C)[C@H]3CC[C@@]12C (some centres not stated) [TOOSENDANIC ACID A] | < 10 µM | < 10 µM | < 10 µM |
| CC(C)=CCCC(C(=O)O)[C@@H]1[C@@H](O)C[C@]2(C)C3=CC[C@H]4C(C)(C)[C@H](O)CC[C@]4(C)[C@H]3CC[C@@]12C (some centres not stated) [TOOSENDANIC ACID B] | < 10 µM | < 10 µM | < 10 µM |
| CC(C)(O)[C@@H]1CC[C@H]([C@@H]2[C@@H](O)C[C@]3(C)C4=CC[C@H]5C(C)(C)C(=O)CC[C@]5(C)[C@H]4CC[C@@]23C)[C@H]1O [TOOSENDANONE A] | < 10 µM | < 10 µM | < 10 µM |

Source: ChEMBL document CHEMBL1152324, “Protolimonoids from Melia toosendan” (J Nat Prod, 2009)
